Test results: patent US20070009544A1, “Anti-allergic complex molecules” (priority 1999, published 2007)
Converted amounts (≈) assume the structure as drawn. “Also recorded” adds a separate entry of the source. Like-named read-outs stand apart in the source and are kept apart here. Numbered stars: 1 amine (or outer) side, 2 acyl side, 3 side chain; on linkers, the order of the positions; unused ones are H or OH. Peptide text beside a SMILES is read from it. Suc = O=C(CCC(=O)[*:2])[*:1]

Tests used:
[1] = test system: purified rat peritoneal mast cells; assay type: cell-based
Outline: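 Intact purified rat peritoneal mast cells were incubated at 37° C with increasing peptide concentrations, then stimulated with 5 μg/ml compound 48/80 (maximal release). Histamine secretion is expressed as % of total cellular histamine after subtracting spontaneous release, as the mean of duplicates.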

[2] = test system: purified rat peritoneal mast cells
Method: (§1) Mast cells from the peritoneal cavity of C.R rats were isolated in Tyrode buffer (137 mM NaCl, 2.7 mM KC1, 1 mM MgCl2, 0.4 mM NaH2PO4, 20 mM Hepes, 1.0 mM CaCl2, 5.6 mM glucose, 1 mg/ml BSA, pH 7.2) and purified over a Ficoll gradient. A suspension of washed peritoneal cells was placed over a cushion of 30% Ficoll 400 (Pharmacia Biotech.) in buffered Saline containing 0.1% BSA; and centrifuged at 150O×g for 15 min. The purity of mast cells recovered from the bottom of the tube was >90%, as assessed by toluidine blue staining.
(§2) Purified mast cells (duplicated of 10^5 cells/0.5 ml) were incubated in Tyrode buffer with buffer or with desired concentrations of the indicated peptide for 2 h. at. 37° C. Histamine secretion was subsequently stimulated by the indicated concentration of compound 48/80 (Sigma) dissolved in Tyrode buffer. Incubation with compound 48/80 was carried out for 20 mm.in at 37° C. The reaction was terminated by placing the tubes on ice. The cells were sedimented by centrifugation at 150×g for 5 mm.in and the supernatants were collected. The amount of histamine release was determined as previously described (Aridor et al., 1990). Briefly, cell pellets were lysed using 0.1N NaOH and the volume of each sample was adjusted to 0.5 ml by H2O. Histamine content was assayed using the o-phtalaldehyde (OPT) fluorimetric method (Shore et al., 1959). Aliquots of 0.4 ml from the supernatants and cell lysates were incubated with 1.6 ml H20, 0.4 ml 1N NaOH and 0.1 ml of 10 mg/l ml OPT in methanol, for 4 min at room temperature. The reaction was terminated by the addition of 0.2 ml 3N HCl. Samples were centrifuged at 150×g for 5 min. and 0.2 ml samples were transferred to a 96 well plate. The histamine spectrofluorometric assay was run in microplates using a microplates reader (FL-600, Biotek instruments Winooski, Vt., USA). Samples were excited by light at 340 nm and read at 440 nm. Histamine release was calculated as the percentage of total histamine content (supernatant/pellet+supernatant) in each sample. Each data point represents the average of duplicate measurements. The spontaneously released histamine was subtracted.

[3] = test system: rat peritoneal mast cells; assay: Inhibition of IgE dependent (DNP-specific IgE / DNP-BSA) histamine secretion; assay type: cell-based
Method: Peptides 2 and 2-Suc were also tested in vitro for their ability to block histamine secretion from rat peritoneal mast cells, in response to the IgE-dependent mechanism. The IgE dependent pathway is activated in response to an immunological trigger, brought about by aggregation of the high affinity receptors (FeεRI) for IgE, which are present on the cell surface of mast cells. This response involves crosslinking of cell bound IgE antibodies by the corresponding antigens (allergens).
Isolated, purified mast cells were sensitized in the presence of a monoclonal DNP-specific IgE antibody (1 μg/10^6 cells) for 1 hour at 37° C. The cells were washed 3 times and incubated for 2 hours with different concentrations of each peptide, followed by triggering with the antigen DNP-BSA (100 ng/ml) in the presence of Brain Extract (0.1 mg/ml), for 20 min. at 37° C. Placing the tubes in ice terminated the reaction. The amount of histamine released from the cells was monitored.

[4] = Peptide solubility (remarks; assay medium, Tyrode buffer); assay type: physicochemical
[5] = test system: abdominal skin of C.R rats; assay: Rat skin test: intradermal injection of peptide, then intradermal compound 48/80 or vehicle, wheal area; assay type: in vivo; conditions: for Mean Wheal Area ± STD, Vehicle: vehicle instead of compound 48/80
Outline: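 Peptide was injected intradermally (20 μl, in 10% DMSO/saline) at 20 or 200 μg; after 0.5 or 1 h, 20 μl compound 48/80 (0.1 mg/ml) or vehicle was injected intradermally at the same site. Wheal outlines were traced and areas measured by planimeter, reported as mean wheal area.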

[6] = test system: purified rat peritoneal mast cells; assay: Histamine secretion from intact mast cells incubated with peptide alone (secretagogue side effect)
Method: as §1, §2

## VTVLALGALAGVGVGPKNNLKECGLY [WALL010]
[1]; 200 μg/ml peptide
  maximal inhibition of compound 48/80 induced histamine release: 16.7%
[2]
  Secretagogue (histamine secretion following incubation of mast cell with different concentrations of each peptide): +
  histamine secretion from mast cells on incubation with increasing concentrations of peptide alone: resulted in histamine secretion

## CC(C)C[C@H](NC(=O)CNC(=O)[C@H](CS)NC(=O)[C@H](CCC(=O)O)NC(=O)[C@H](CCCCN)NC(=O)[C@H](CC(C)C)NC(=O)[C@H](CC(N)=O)NC(=O)[C@H](CC(N)=O)NC(=O)[C@H](CCCCN)NC(=O)[C@@H]1CCCN1C(=O)[C@H](C)NC(=O)[C@H](CC(C)C)NC(=O)[C@H](CC(C)C)NC(=O)[C@H](C)NC(=O)[C@H](CC(C)C)NC(=O)[C@H](CC(C)C)NC(=O)[C@@H](NC(=O)[C@H](C)NC(=O)[C@@H]1CCCN1C(=O)[C@H](CC(C)C)NC(=O)[C@H](CC(C)C)NC(=O)[C@H](C)NC(=O)[C@@H](NC(=O)[C@H](C)NC(=O)[C@H](C)NC(=O)CCC(=O)O)C(C)C)C(C)C)C(=O)N[C@@H](Cc1ccc(O)cc1)C(=O)O [Peptide 2-Suc] (Suc-AAVALLPAVLLALLAPKNNLKECGLY-OH; C-terminus assumed)
[1]
  IC50, compound 48/80 induced histamine secretion: 200 µg/mL (≈ 72 µM)
[1]; 600 μg/ml peptide, compound 48/80 concentration not given
  maximal inhibition of compound 48/80 induced histamine secretion: 80%
[1]; Table 1, incubation with different concentrations of each peptide, then induction of the allergic reaction
  Inhibitor (degree of inhibition of histamine secretion from mast cells): +++ (+++ Potent inhibitor (>85% inhibition))
[3]; 600 μg/ml peptide, DNP-BSA 100 ng/ml
  inhibition of IgE induced histamine secretion: 90%
[3]; DNP-specific IgE, DNP-BSA
  block of histamine secretion activated by an immunological trigger: effectively block histamine secretion
[4]
  solubility: more soluble in the assay medium, as compared to peptide 2
[5]; intradermal peptide
  block of compound 48/80 induced allergic reaction in vivo, rat skin: less effective than peptide 2
[5]; intradermal peptide 1 mg/ml, 0.5 hour before allergic induction
  Mean Wheal Area ± STD, Compound 48/80: 93.4 ± 32.0 (n = 11) mm^2
[5]; intradermal peptide 1 mg/ml, 0.5 hour before
  Mean Wheal Area ± STD, Vehicle: 56.8 ± 24.1 (n = 11) mm^2
[5]; intradermal peptide 1 mg/ml, 1 hour before allergic induction
  Mean Wheal Area ± STD, Compound 48/80: 89.3 ± 30.1 (n = 12) mm^2
[5]; intradermal peptide 1 mg/ml, 1 hour before
  Mean Wheal Area ± STD, Vehicle: 57.7 ± 23.2 (n = 12) mm^2
[5]; intradermal peptide 10 mg/ml, 0.5 hour before allergic induction
  Mean Wheal Area ± STD, Compound 48/80: 73.8 ± 28.7 (n = 10) mm^2
[5]; intradermal peptide 10 mg/ml, 0.5 hour before
  Mean Wheal Area ± STD, Vehicle: 57.2 ± 21.7 (n = 10) mm^2
[5]; intradermal peptide 10 mg/ml, 1 hour before allergic induction
  Mean Wheal Area ± STD, Compound 48/80: 78.1 ± 28.3 (n = 12) mm^2
[5]; intradermal peptide 10 mg/ml, 1 hour before
  Mean Wheal Area ± STD, Vehicle: 54.3 ± 25.8 (n = 12) mm^2
[5]; intradermal peptide 0.5 hour before allergic induction
  reduction of compound 48/80 induced allergic reaction: significantly reduced the wheal
[5]; intradermal peptide, lower dose or 1 hour before allergic induction
  reduction of compound 48/80 induced allergic reaction: had no effect
[6]; Table 1, peptide alone, no allergen
  Secretagogue (histamine secretion following incubation of mast cell with different concentrations of each peptide): −
[6]; no additional allergen
  histamine secretion from mast cells on incubation with increasing concentrations of peptide alone: did not induce histamine secretion; also recorded: no stimulatory effect
